According to US11958861B2, “Spirocyclic lactams as JAK2 V617F inhibitors” (Incyte Corporation, priority 2021, dated 2024):
pIC50: −log10 of the molar value. Structures can show the parent of a compound that is named as a salt.

Key:
[1] = target: T1, pseudo-kinase domain (JH2, amino-acids 536-812) of human V617F mutant JAK2 (Homo sapiens, UniProt O60674, F794H/V617F/W659A/W777A); assay: JAK2 LanthaScreen JH2-V617F Binding Assay; details: 1 hour at 25° C.
T1 construct: pseudo-kinase domain (JH2, amino-acids 536-812 with 3 surface mutations W659A, W777A, F794H); purchased BPS Bioscience 79498; host or cells: baculovirus expression system
T1 sequence (O60674 536-812 V617F/W659A/W777A/F794H): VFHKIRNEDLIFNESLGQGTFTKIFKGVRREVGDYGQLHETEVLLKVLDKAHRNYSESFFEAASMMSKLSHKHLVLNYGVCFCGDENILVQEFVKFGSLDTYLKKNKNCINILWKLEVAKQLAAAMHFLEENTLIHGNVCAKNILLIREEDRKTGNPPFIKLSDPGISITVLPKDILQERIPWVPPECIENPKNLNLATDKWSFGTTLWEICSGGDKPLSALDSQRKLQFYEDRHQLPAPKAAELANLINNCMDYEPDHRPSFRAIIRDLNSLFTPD
How it was run: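 Biotinylated His-Avi-tagged JH2 protein was baculovirus-expressed and used at 0.26 nM. It was incubated with compound, 50 nM fluorescent JH2 tracer and 0.25 nM streptavidin-Tb for 1 h at 25 °C in pH 7.5 Tris buffer with MgCl2, BSA, DTT. Non-specific binding was defined with 2 mM ATP. IC50 came from four-parameter fits of TR-FRET signal.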

[2] = target: T2, catalytic domain (JH1, amino acids 808-1132) of human JAK2 (Homo sapiens, UniProt O60674); assay: JAK2 HTRF Enzyme Activity Assay; assay type: biochemical; details: ATP 30 μM, read-out: ENZ 30UMATP
T2 construct: catalytic domain (JH1, amino acids 808-1132) of human JAK2; His (N); purchased BPS Bioscience 40450; host or cells: baculovirus expression system
T2 sequence (O60674 808-1132): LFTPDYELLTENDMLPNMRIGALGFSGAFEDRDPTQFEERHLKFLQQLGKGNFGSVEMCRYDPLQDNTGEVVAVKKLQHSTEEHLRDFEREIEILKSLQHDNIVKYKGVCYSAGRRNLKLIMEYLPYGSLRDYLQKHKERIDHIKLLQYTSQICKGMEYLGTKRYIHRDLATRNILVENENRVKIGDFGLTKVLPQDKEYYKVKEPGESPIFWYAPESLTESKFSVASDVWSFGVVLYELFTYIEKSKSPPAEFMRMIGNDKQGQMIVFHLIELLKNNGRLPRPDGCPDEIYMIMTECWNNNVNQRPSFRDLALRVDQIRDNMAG
How it was run: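 His-tagged JAK2 JH1 from baculovirus, 0.015 nM, incubated with compound, ATP at 30 μM or 1 mM and 500 nM biotinylated peptide, pH 7.5, 60 min at 25° C. HTRF read-out via Eu-anti-phosphotyrosine and streptavidin-APC after EDTA stop; IC50 from four-parameter dose-response fit.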

[3] = target: T3, pseudo-kinase domain (JH2, amino-acids 536-812) of human Wild Type JAK2 (Homo sapiens, UniProt O60674, F794H/W659A/W777A); assay: JAK2 LanthaScreen JH2-WT Binding Assay; details: 1 hour at 25° C.
T3 construct: pseudo-kinase domain (JH2, amino-acids 536-812 with 3 surface mutations W659A, W777A, F794H); purchased BPS Bioscience 79463; host or cells: baculovirus expression system
T3 sequence (O60674 536-812 W659A/W777A/F794H): as the sequence (O60674 536-812 V617F/W659A/W777A/F794H) above, with F82V counted along it
How it was run: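 TR-FRET tracer displacement: IC50 from four-parameter dose-response fit. Reaction: compound, 0.145 nM biotinylated JH2 protein from baculovirus, 0.25 nM streptavidin-Tb and 50 nM tracer, 1 h at 25° C, 50 mM Tris pH 7.5 buffer. 2 mM ATP gave non-specific binding.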

[4] = target: T4, catalytic domain (JH1, amino acids 826-1132) of human JAK2 (Homo sapiens, UniProt O60674); assay: JAK2 LanthaScreen JH1 Binding Assay; details: 2 hours at 25° C.
T4 construct: catalytic domain (JH1, amino acids 826-1132) of human JAK2; purchased Carna Biosciences 08-445-20N; host or cells: baculovirus expression system
T4 sequence (O60674 826-1132): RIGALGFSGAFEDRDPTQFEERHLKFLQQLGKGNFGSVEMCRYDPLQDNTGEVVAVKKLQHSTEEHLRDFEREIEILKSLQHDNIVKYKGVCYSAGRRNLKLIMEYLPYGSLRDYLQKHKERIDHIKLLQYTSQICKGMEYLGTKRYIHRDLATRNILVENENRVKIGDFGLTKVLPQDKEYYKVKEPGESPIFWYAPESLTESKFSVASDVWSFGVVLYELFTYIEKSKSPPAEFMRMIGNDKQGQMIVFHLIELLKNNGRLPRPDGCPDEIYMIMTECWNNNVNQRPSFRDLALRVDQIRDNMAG
How it was run: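 FLAG-tagged biotinylated JAK2 JH1 (1.5 nM) incubated with compounds, 50 nM fluorescent tracer and 0.5 nM streptavidin-Tb in Tris pH 7.5 buffer with MgCl2, BSA, DTT, 2 h at 25 °C.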

SMILES	pIC50 [1]	pIC50 [2]	pIC50 [3]	pIC50 [4]
CN1C(=O)C2(CCOCC2)c2c1cnc1[nH]c(-c3ccc(CN4CCC(S(C)(=O)=O)CC4)cc3)c(-c3ccccc3)c21 [Example 1, 6-Methyl-2-(4-((4-(methylsulfonyl)piperidin-1-yl)methyl)phenyl)-1-phenyl-2′,3,3′,5′,6,6′-hexahydro-7H-spiro[dipyrrolo[2,3-b:3′,2′-d]pyridine-8,4′-pyran]-7-one]	≥ 7.00	5.60 to 5.90	≥ 7.00	5.60 to 5.90
CC(=O)N1CCC(N2CC3(C2)C(=O)N(C)c2cnc4[nH]c(-c5ccc(CN6CCC(S(C)(=O)=O)CC6)cc5)c(-c5ccccc5)c4c23)CC1 [Example 3]	6.30 to 7.00	< 5.60	6.30 to 7.00	< 5.60
CN1C(=O)C2(CCN(CCC#N)CC2)c2c1cnc1[nH]c(-c3ccc(CN4CCC(S(C)(=O)=O)CC4)cc3)c(-c3ccccc3)c21 [Example 4, 3-(6-Methyl-2-((4(4-(methylsulfonyl)piperidin-1-yl)methyl)phenyl)-7-oxo-1-phenyl-6,7-dihydro-3H-spiro[dipyrrolo[2,3-b:3′,2′-d]pyridine-8,4′-piperidin]-1′-yl)propanenitrile trifluoroacetate salt]	≥ 7.00	5.90 to 6.30	≥ 7.00	5.90 to 6.30
CN1C(=O)C2(CCN(CCC#N)CC2)c2c1cnc1[nH]c(-c3ccc(CN4CCC(S(C)(=O)=O)CC4)cc3)c(-c3ccc4c(cnn4C)c3)c21 [Example 5, 3-(6-Methyl-1-(1-methyl-1H-indazol-5-yl)-2-(4-((4-(methylsulfonyl)piperidin-1-yl)methyl)phenyl)-7-oxo-6,7-dihydro-3H-spiro[dipyrrolo[2,3-b:3′,2′-d]pyridine-8,4′-piperidin]-1′-yl)propanenitrile trifluoroacetate salt]	≥ 7.00	5.90 to 6.30	≥ 7.00	5.90 to 6.30
CN1C(=O)C2(CCN(c3cnn(C4(CC#N)CCOCC4)c3)CC2)c2c1cnc1[nH]c(-c3cnn(C)c3)c(-c3ccccc3)c21 [Example 6, 2-(4-(4-(6-Methyl-2-(1-methyl-1H-pyrazol-4-yl)-7-oxo-1-phenyl-6,7-dihydro-3H-spiro[dipyrrolo[2,3-b:3′,2′-d]pyridine-8,4′-piperidin]-1′-yl)-1H-pyrazol-1-yl)tetrahydro-2H-pyran-4-yl)acetonitrile trifluoroacetate salt]	≥ 7.00	< 5.60	≥ 7.00	< 5.60
[2H]C([2H])([2H])n1cc(-c2[nH]c3ncc4c(c3c2-c2ccc3c(cnn3C)c2)C2(CCN(CCC#N)CC2)C(=O)N4C)cn1 [Example 7, 3-(6-Methyl-1-(1-methyl-1H-indazol-5-yl)-2-(1-(methyl-d3)-1H-pyrazol-4-yl)-7-oxo-6,7-dihydro-3H-spiro[dipyrrolo[2,3-b:3′,2′-d]pyridine-8,4′-piperidin]-1′-yl)propanenitrile]	≥ 7.00	5.60 to 5.90	≥ 7.00	5.60 to 5.90
CN1C(=O)C2(CCCC2)c2c1cnc1[nH]c(-c3cnn(Cc4ccncc4)c3)c(-c3ccc4c(cnn4C)c3)c21 [Example 8, 6′-Methyl-1′-(1-methyl-1H-indazol-5-yl)-2′-(1-(pyridin-4-ylmethyl)-1H-pyrazol-4-yl)-3′,6′-dihydro-7′H-spiro[cyclopentane-1,8′-dipyrrolo[2,3-b:3′,2′-d]pyridin]-7′-one trifluoroacetate salt]	≥ 7.00	< 5.60	≥ 7.00	5.60 to 5.90
CN1C(=O)C2(CCCC2)c2c1cnc1[nH]c(C3CC3)c(-c3ccc4c(cnn4C)c3)c21 [Example 9, 2′-Cyclopropyl-6′-methyl-1′-(1-methyl-1H-indazol-5-yl)-3′,6′-dihydro-7′H-spiro[cyclopentane-1,8′-dipyrrolo[2,3-b:3′,2′-d]pyridin]-7′-one, trifluoroacetate salt]	6.30 to 7.00	< 5.60	6.30 to 7.00	< 5.60
CN1C(=O)C2(CCC2)c2c1cnc1[nH]c(-c3ccc(CN4CCC(S(C)(=O)=O)CC4)cc3)c(-c3ccccc3)c21 [Example 10, 6′-Methyl-2′-(4-((4-(methylsulfonyl)piperidin-1-yl)methyl)phenyl)-1′-phenyl-3′,6′-dihydro-7′H-spiro[cyclobutane-1,8′-dipyrrolo[2,3-b:3′,2′-d]pyridin]-7′-one trifluoroacetate salt]	≥ 7.00	< 5.60	≥ 7.00	< 5.60
CN1C(=O)C2(CCCCC2)c2c1cnc1[nH]c(-c3ccc(CN4CCC(S(C)(=O)=O)CC4)cc3)c(-c3ccccc3)c21 [Example 11, 6′-Methyl-2′-((4(4-(methylsulfonyl)piperidin-1-yl)methyl)phenyl)-1′-phenyl-3′,6′-dihydro-7′H-spiro[cyclohexane-1,8′-dipyrrolo[2,3-b:3′,2′-d]pyridin]-7′-one trifluoroacetate salt]	6.30 to 7.00	< 5.60	6.30 to 7.00	< 5.60
CC(=O)N1C2CCC1CC1(C2)C(=O)N(C)c2cnc3[nH]c(-c4ccc(CN5CCC(S(C)(=O)=O)CC5)cc4)c(-c4ccccc4)c3c21 (stereo not shown) [Example 13, 8-Acetyl-6′-methyl-2′-((4(4-(methylsulfonyl)piperidin-1-yl)methyl)phenyl)-1′-phenyl-3′,6′-dihydro-7′H-8-azaspiro[bicyclo[3.2.1]octane-3,8′-dipyrrolo[2,3-b:3′,2′-d]pyridin]-7′-one trifluoroacetate salt]	6.30 to 7.00	5.60 to 5.90	≥ 7.00	5.60 to 5.90
CN1C(=O)C2(CCN(c3ccncn3)CC2)c2c1cnc1[nH]c(-c3ccc(CN4CCC(S(C)(=O)=O)CC4)cc3)c(-c3ccccc3)c21 [Example 15, 6-Methyl-2-(4-((4-(methylsulfonyl)piperidin-1-yl)methyl)phenyl)-1-phenyl-1′-(pyrimidin-4-yl)-3,6-dihydro-7H-spiro[dipyrrolo[2,3-b:3′,2′-d]pyridine-8,4′-piperidin]-7-one, trifluoroacetate salt]	≥ 7.00	< 5.60	≥ 7.00	< 5.60
CN1C(=O)C2(CC3CCC(C2)N3c2ccncn2)c2c1cnc1[nH]c(-c3ccc(CN4CCC(S(C)(=O)=O)CC4)cc3)c(-c3ccccc3)c21 [Example 16, (1R,3r,5S)-6′-Methyl-2′-((4(4-(methylsulfonyl)piperidin-1-yl)methyl)phenyl)-1′-phenyl-8-(pyrimidin-4-yl)-3′,6′-dihydro-7′H-8-azaspiro[bicyclo[3.2.1]octane-3,8′-dipyrrolo[2,3-b:3′,2′-d]pyridin]-7′-one, trifluoroacetate salt]	≥ 7.00	< 5.60	≥ 7.00	< 5.60
Cc1ncc(-c2c(-c3cnn(C)c3)[nH]c3ncc4c(c23)C2(CCN(c3ccncn3)CC2)C(=O)N4C)s1 [Example 17, 6-Methyl-2-(1-methyl-1H-pyrazol-4-yl)-1-(2-methylthiazol-5-yl)-1′-(pyrimidin-4-yl)-3,6-dihydro-7H-spiro[dipyrrolo[2,3-b:3′,2′-d]pyridine-8,4′-piperidin]-7-one, trifluoroacetate salt]	6.30 to 7.00	< 5.60	6.30 to 7.00	< 5.60
C=Cc1c(-c2cnn(C)c2)[nH]c2ncc3c(c12)C1(CCN(c2ccncn2)CC1)C(=O)N3C [Example 18, 6-Methyl-2-(1-methyl-1H-pyrazol-4-yl)-1′-(pyrimidin-4-yl)-1-vinyl-3,6-dihydro-7H-spiro[dipyrrolo[2,3-b:3′,2′-d]pyridine-8,4′-piperidin]-7-one, trifluoroacetate salt]	5.60 to 5.90	< 5.60	5.90 to 6.30	< 5.60
CCc1c(-c2cnn(C)c2)[nH]c2ncc3c(c12)C1(CCN(c2ccncn2)CC1)C(=O)N3C [Example 19, 1-Ethyl-6-methyl-2-(1-methyl-1H-pyrazol-4-yl)-1′-(pyrimidin-4-yl)-3,6-dihydro-7H-spiro[dipyrrolo[2,3-b:3′,2′-d]pyridine-8,4′-piperidin]-7-one, trifluoroacetate salt]	6.30 to 7.00	5.60 to 5.90	6.30 to 7.00	5.60 to 5.90
